Laboratory results from patent publication US20090076201A1, “(METH) ACRYLOYLOXYTETRAHYDROFURANS AND PROCESS FOR PRODUCTION THEREOF” (Mitsubishi Chemical Corporation, priority 2005, published 2009).

Assay: Solubility test in heptane and aqueous solvents at 26° C.
Settings: grams of solute dissolved in 100 g of solvent
Procedure: A solubility test of erythritan monomethacrylate (HOTHFMA) in aqueous solvents shown in the following table was carried out at a temperature of 26° C. In this connection, for the purpose of comparison, data on tetrahydrofurfuryl methacrylate (TFMA) and α-methacryloyl-γ-butyrolactone (GBLMA) are also shown. The numeric values in the table represent grams of individual solutes dissolved in 100 g of each solvent.

- Solubility (26° C.) in H2O (solvent H2O): >395 g/100 g solv.
- Solubility (26° C.) in H2O/MeOH 4/1 (wt) (solvent H2O/MeOH 4/1 (wt)): >353 g/100 g solv.
- Solubility (26° C.) in Heptane (solvent heptane): 1.74 g/100 g solv.
Compound: C=C(C)C(=O)OC1COCC1O (stereo not drawn) [HOTHFMA, 3-methacryloyloxy-4-hydroxytetrahydrofuran]
